Results reported in ChEMBL document CHEMBL2146471, “Derivatives of heteroarylsulfonamides, their preparation, and their application in human therapy: patent highlight” (ACS Med Chem Lett, 2012).

biological target: Potassium voltage-gated channel subfamily A member 5 (Homo sapiens) (UniProt P22460); assay: Inhibition of Kv1.5 ion channel expressed in HEK293 cells at 10 uM by FLIPR assay; type: cell-based
Sequence (P22460 whole entry): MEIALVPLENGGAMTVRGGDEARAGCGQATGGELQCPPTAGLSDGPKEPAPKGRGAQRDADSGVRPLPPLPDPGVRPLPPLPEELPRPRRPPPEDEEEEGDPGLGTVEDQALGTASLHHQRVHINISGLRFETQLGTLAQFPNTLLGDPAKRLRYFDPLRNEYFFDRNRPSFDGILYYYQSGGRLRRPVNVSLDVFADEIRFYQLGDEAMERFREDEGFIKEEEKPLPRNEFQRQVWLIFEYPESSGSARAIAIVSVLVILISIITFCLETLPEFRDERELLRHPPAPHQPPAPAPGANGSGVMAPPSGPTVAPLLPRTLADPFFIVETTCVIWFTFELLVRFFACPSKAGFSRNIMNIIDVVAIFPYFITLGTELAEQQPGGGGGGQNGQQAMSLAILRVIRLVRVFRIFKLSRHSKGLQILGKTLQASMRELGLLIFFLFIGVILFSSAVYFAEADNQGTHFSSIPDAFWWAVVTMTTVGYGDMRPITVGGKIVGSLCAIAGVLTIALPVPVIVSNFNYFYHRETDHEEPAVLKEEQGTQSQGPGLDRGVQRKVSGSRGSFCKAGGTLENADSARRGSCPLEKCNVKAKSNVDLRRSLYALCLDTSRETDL

SMILES	inhibition [%]
O=C(c1ccc(NS(=O)(=O)c2ccccn2)cc1)N1CCN(c2nc3ccc(F)cc3s2)CC1	100
O=S(=O)(Nc1ccccc1OC1CCN(c2nc3ccc(Br)cc3s2)CC1)c1ccccn1	100
O=S(=O)(Nc1ccccc1OCC1CCN(c2nc3ccccc3s2)C1)c1ccccn1 (stereo not given)	76
O=C(c1ccccc1NS(=O)(=O)c1ccccn1)N1CCN(c2nc3ccc(Br)cc3s2)CC1	100
O=C(c1cccc(NS(=O)(=O)c2ccccn2)c1)N1CCN(c2nc3ccc(Cl)cc3s2)CC1	75.1
